Patent US4684742A, “Process for the production of 2-(2-halogenoethylamino)-2-oxo-3-(2-halogenoethyl)-1.3.2.-oxazaphosphori nanes” (Polska Akademia Nauk-Centrum Baden Molekularnych i …, priority 1984, dated 1987)

Key:
[1] = Toxicity (LD50) in healthy CD2F1 female mice, 14 days observation; conditions: mouse, in vivo; for selectivity ratio: TI from LD50 (healthy CD2F1 mice) and ED50 (L1210 leukemic CD2F1 mice), read-out: Therapeutic index; for LD50 at 336 h: healthy CD2F1 female mice, 14 days observation period
Experimental: (§1) Antileukemic activity against L1210, toxicity and therapeutic
(§2) anlysis. Toxicity (LD50) were determined in healthy CD2F1 femal
mice during 14 days observation period. TI = LD50

[2] = tested on: L1210; assay: Antileukemic activity in L1210 leukemic CD2F1 female mice (increase in life span); type: in vivo; conditions: for ED50: Mus musculus, L1210 leukemic CD2F1 female mice, estimated by regression analysis, read-out: ED50 (dose producing 50% increase in life span of treated mice over control); for advantage over parent ifosfamide: racemic or enantiomeric compounds, versus ifosfamide, conclusion from Table 1
Experimental: as §1
Antileukemic activity was evaluated in L1210 leukemic CD2F1 female
mice ED50 doses producing the 50% increase in life span of treated
mice over control were estimated from experimental data by regression
as §2

| Compound | selectivity ratio [1] | LD50 at 336 h [1] | ED50 [2] | advantage over parent ifosfamide [2] |
| --- | --- | --- | --- | --- |
| O=P1(NCCCl)OCCCN1CCCl (centres unmarked) [X=Cl, Y=Cl, 2-(2-chloroethylamino)-2-oxo-3-(2-chloroethyl)-1.3.2-oxazaphosphorinane, reference compound] | 6.6 | 680 mg/kg | 103 mg/kg | – |
| O=P1(NCCCl)OCCCN1CCBr (centres unmarked) [X=Cl, Y=Br, 2-(2-Chloroethylamino)-2-oxo-3-(2-bromoethyl)-1.3.2-oxazaphosphorinane] | 11.6 | 512 mg/kg | 44 mg/kg | more advantageous than parent ifosfamide |
| O=P1(NCCBr)OCCCN1CCBr (centres unmarked) [X=Br, Y=Br, 2-(2-Bromoethylamino)-2-oxo-3-(2-bromoethyl)-1.3.2-oxazaphosphorinane] | 10.7 | 459 mg/kg | 43 mg/kg | more advantageous than parent ifosfamide |
